{"source": "paper PMC7465821", "about": "“Isolation of Three Lycorine Type Alkaloids from Rhodolirium speciosum (Herb.) Ravenna Using pH-Zone-Refinement Centrifugal Partition Chromatography and Their Acetylcholinesterase Inhibitory Activities” (Metabolites, 2020)", "data": [{"molecular_target": "acetylcholinesterase (AChE) (Electrophorus electricus, UniProt O42275)", "sequence (O42275 24-633)": "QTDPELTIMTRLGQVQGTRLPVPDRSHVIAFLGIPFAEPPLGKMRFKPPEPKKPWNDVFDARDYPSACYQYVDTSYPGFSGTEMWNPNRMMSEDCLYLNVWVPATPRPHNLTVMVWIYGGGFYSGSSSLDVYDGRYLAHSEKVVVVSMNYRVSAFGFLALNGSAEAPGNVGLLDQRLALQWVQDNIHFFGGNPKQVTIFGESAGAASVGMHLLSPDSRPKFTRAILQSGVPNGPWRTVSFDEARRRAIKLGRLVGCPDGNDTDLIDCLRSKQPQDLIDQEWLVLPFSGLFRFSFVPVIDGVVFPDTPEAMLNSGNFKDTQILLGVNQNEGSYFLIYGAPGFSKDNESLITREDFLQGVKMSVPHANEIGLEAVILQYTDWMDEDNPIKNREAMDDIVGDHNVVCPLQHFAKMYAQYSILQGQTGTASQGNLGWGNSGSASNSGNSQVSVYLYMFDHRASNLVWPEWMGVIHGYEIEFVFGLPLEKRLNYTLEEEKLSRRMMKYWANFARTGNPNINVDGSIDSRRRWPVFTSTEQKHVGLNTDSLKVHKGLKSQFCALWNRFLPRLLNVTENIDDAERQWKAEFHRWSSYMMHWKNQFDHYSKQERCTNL", "assay": "Ellman spectrophotometric microplate assay, […] nm", "format": "biochemical", "units": {"IC50": "µM"}, "values": [{"compound": "CC(=O)O[C@H]1[C@H]2c3cc4c(cc3C=[N+]3CCC(=C[C@@H]1O)[C@H]23)OCO4", "note": "[compound 1, 1-O-acetyl-5,6-dehydrolycorine]", "IC50": 620}, {"compound": "CC(=O)O[C@H]1[C@H]2c3cc4c(cc3CN3CCC(=C[C@@H]1O)[C@H]23)OCO4", "note": "[compound 2, 1-O-acetyl-lycorine]", "IC50": 1430}, {"compound": "CC(=O)OC1[C@@H](OC(C)=O)C=C2CC[N+]3=Cc4cc5c(cc4[C@H]1[C@@H]23)OCO5", "note": "(stereo partly drawn) [compound 3, 1,2-O-diacetyl-5,6-dehydrolycorine]", "IC50": 46.3}]}]}
